Test results taken from ChEMBL document CHEMBL3507680, “University of Dundee, Gates Library screen for HepG2 cell viability”.

Test: Human HepG2 cell viability assay in 384 well format
Format: toxicity, cell-based
Parameters: dose 125 nL, time 70.5 hour; cytotoxicity at 70.5 h: concentration not given beside the values
Conditions: HepG2 cells, read-out: Inhibition

Compound | cytotoxicity at 70.5 h
Cn1cc(CN2CCC3(CC2)COC(COc2ccccn2)C3)cn1 (centres undefined) | -14.7%
CC(C)NC(=O)C1CN(C(=O)CCc2ccccc2)CC12CCOCC2 (centres undefined) | 44.3%
O=C(Nc1ccccc1)[C@H]1C[C@@H]2CN(S(=O)(=O)C3CC3)C[C@H]1O2 | -14.4%
O=C(c1ccco1)N1CC[C@H]2C[C@@H](c3nccs3)O[C@@H]2C1 | -1.13%
CC(C)CS(=O)(=O)N1C[C@H]2C[C@H](C(=O)Nc3cccnc3)[C@@H](C1)O2 | -6.34%
COCCNC(=O)[C@@H]1CCO[C@@H]2CCN(Cc3cnn(C)c3)C[C@@H]21 | -11.1%
O=C(N[C@@H]1CN(Cc2ccccn2)[C@@H]2COC[C@@H]21)C1CCC1 | -1.02%
O=C(c1c[nH]cn1)N1CCC(F)(F)C2(CCN(c3ncccn3)C2)C1 (centres undefined) | -5.46%
Cc1nc(CN2C[C@@H](NC(=O)C3CCC3)[C@H]3COC[C@H]32)cs1 | -5.49%
COCCN1CCCC12CCN(c1ncccn1)CC2 | -14.3%
CCN1C(=O)[C@H]2CN(CC(C)C)C[C@H]2C12CCN(S(C)(=O)=O)CC2 | -6.33%
CN1CCN(c2ncnc3c2CCN(c2ncc(F)cn2)CC3)CC1 | -1.02%
Cn1cncc1CN1CCC2(CCCN2c2ncccn2)CC1 | -8.23%
CCn1cc2c(n1)CN(S(=O)(=O)c1cccnc1)CC2COC (centres undefined) | 1.06%
c1csc(CN2C[C@@H](n3cccn3)[C@H]3OCCC[C@H]32)c1 | -3.02%
O=C(NCC1CC[C@@H]2[C@@H]1OCCN2Cc1cccs1)c1ccco1 (some centres undefined) | -0.679%
COCCN1CCC2(CC1)CN(CCn1cccn1)C(=O)CO2 | 1.22%
CC(C)CC(=O)N1CC[C@H]2N(C)CC[C@@]2(C(=O)Nc2ccccc2)CC1 | 36.5%
CCN1CC2(CC1=O)CN(Cc1ccco1)CCN(C(=O)C(C)C)C2 (centres undefined) | 7.56%
O=C(NCc1cccs1)[C@@H]1CC[C@@H]2[C@@H](CCN2CC2CCC2)O1 | -17.4%
Cn1cccc1C(=O)NC[C@]12COC[C@H]1CN(Cc1nccs1)C2 | -15.1%
O=C(NC[C@]12COC[C@H]1CN(CC1CCOCC1)C2)c1ccccc1 | 1.78%
COc1ccccc1CN1CC[C@]2(C[C@@H](OC)CO2)C1 | -4.33%
O=C(NCc1cccs1)[C@H]1CC[C@@H]2[C@@H](CCN2C2CCC2)O1 | -3.48%
CCn1ncc2c1CN(C(=O)Cc1cccs1)CC2COC (centres undefined) | -7.83%

Compound | cytotoxicity at 70.5 h
O=C(NC[C@]12COC[C@H]1CN(Cc1nccs1)C2)c1cscn1 | -3.54%
CCC1=N[C@@]2(CC[C@@H]3CN(CC4CC4)C[C@@H]32)C(=O)N1CC1CC1 | -20.5%
CCCS(=O)(=O)N1CCOC2(CCCN(c3ccccn3)C2)C1 (centres undefined) | -13.3%
CC(C)CCN1C[C@H]2C[C@H](C(=O)Nc3ccccc3)[C@@H](C1)O2 | -21.4%
O=C(Cc1ccccc1)N1CC[C@H]2[C@@H]1CCC(=O)N2Cc1ccncc1 | 1.86%
Cc1ccc(CN2CCC3(CC2)CN(c2cnn(C)c2)C(=O)CO3)o1 | -9.82%
O=C(CC1CC1)N1CC[C@H]2[C@@H]1CCC(=O)N2Cc1ccncc1 | -9.8%
COc1ncccc1C(=O)N1CC[C@H]2C[C@H](c3nnc(C)[nH]3)O[C@@H]2C1 | -14.1%
O=S(=O)(C1CC1)N1C[C@H]2CCC[C@@]2(COCc2ccccn2)C1 | -14.3%
Cc1noc(C)c1CN1CCc2ncc(CN3CCCC3)n2CC1 | -5.92%
Cc1cccc(CN2C[C@@H](NC(=O)C3CC3)[C@H]3OCCC[C@H]32)n1 | 4.63%
CC(=O)N1CCCC1c1nnn2cc(NCc3cccnc3)ccc12 (centres undefined) | -18.3%
CN(C[C@@H]1CCC[C@@H]2CN(Cc3cccnc3)C[C@@H]21)C1CC1 | -1.32%
CO[C@@H]1CCN(S(=O)(=O)N(C)C)[C@@H]2CN(Cc3ccncc3)C[C@@H]21 | -1.72%
CCN1CC2(CC1=O)CN(Cc1ccncc1)CCN(C(=O)C(C)C)C2 (centres undefined) | 28.2%
Fc1cccnc1O[C@H]1CN(Cc2ccoc2)[C@@H]2CCCO[C@H]12 | -4.66%
O=C(C[C@@H]1COC[C@H]2CN(Cc3cccnc3)C[C@@H]12)N1CCOCC1 | 29.4%
O=C(C[C@@H]1COC[C@H]2CN(Cc3ccccn3)C[C@@H]12)N1CCOCC1 | -2.94%
Fc1cccnc1O[C@@H]1CN(Cc2ccccn2)[C@@H]2CCCO[C@@H]21 | -10.3%
O=S(=O)(c1cccnc1)N1C[C@H]2CCC[C@@]2(COc2ccccn2)C1 | -7.2%
c1cc(CN2C[C@@H]3OCCN(CCN4CCCC4)[C@@H]3C2)co1 | -10.1%
Cc1nc(CN2CCN(CC3CCOC3)Cc3cccnc32)cs1 (centres undefined) | -8.4%
CCN(CC)[C@@H]1CN(Cc2nccn2C)[C@@H]2CCCO[C@H]12 | -3.21%
CO[C@H]1CCN(Cc2cnn(C)c2)[C@@H]2CN(Cc3ccncc3)C[C@H]12 | -6.62%
